Each structure is given as a SMILES string. Where a SMILES comes first, the peptide text is derived from it. The star is where a group is joined. Cbz = O=C(OCc1ccccc1)*

For experiment [1], the system named is ubiquitinated serotonin transporter protein. The experiment in a line: Expression amount of ubiquitinated serotonin transporter protein in established lymphocytes (UBIQAPTURE-Q kit, Western blotting). Type of experiment: cell-based, human. The note with it: MG132 20 μM, 4 hours. The protocol:
The mouse brain sample, cells, and established lymphocytes were subjected to ultrasonic fragmentation at 4° C. using a sonicator in a lysis buffer [20 mM Tris-HCl, 150 mM NaCl, 50 mM NaF, 1 mM EDTA, 1 mM EGTA, 1% (w/v) TRITONX-100, 1 mM sodium orthovanadate, 0.1% (w/v) SDS, 1% (w/v) sodium deoxycholate, 0.5 mM dithiothreitol, 10 mM sodium pyrophosphate decahydrate, 1 mM phenylmethylsulfonyl fluoride, 10 μg/mL aprotinin, 10 μg/mL leupeptin, and 10 μg/mL pepstatin (pH 7.4)], and thus a homogenate was obtained through these operations. The homogenate was centrifuged for 20 minutes at 4° C. and 13000×g, and the supernatant thus obtained was used. A sample buffer [0.125 M Tris-HCl (pH 6.8), 2% (w/v) SDS, 5% (w/v) glycerol, 0.002% (w/v) bromophenol blue, and 5% (w/v) 2-mercaptoethanol] was added to each of the supernatant samples whose protein content had been adjusted, and then boiled at 95° C. for 5 minutes. Thereafter, the protein (20 μg) was subjected to electrophoresis using a 10% polyacrylamide gel, the protein was transferred to a polyvinylidene difluoride (PVDF) membrane (Millipore Corporation, Billerica, Mass., USA), and blocked using Detector Block Kit (Kirkegaard and Perry Laboratories, Gaithersburg, Md., USA). […] The luminescence due to the immune complex was detected using ECL (GE Healthcare Biosciences, Piscataway, N.J., USA), which is a Western blotting detection reagent, and the expression amount was calculated by the image analysis of the luminescence intensity. […]
According to the procedure in the above-described A (5), the ubiquitinated protein was isolated from the homogenate homogenized with a lysis buffer using UBIQAPTURE-Q kit (Enzo Life Sciences International, Inc, Plymouth Meeting, Pa.), and the ubiquitinated serotonin transporter protein was detected by Western blotting under the same conditions as in the A (5). […]
For orientation: A western blot detects proteins with antibodies after separation by electrophoresis.

Experiment [2] concerns serotonin transporter protein. The experiment in a line: Expression amount of serotonin transporter protein in established lymphocytes (Western blotting). The note with it: for expression amount of the serotonin transporter: MG132 20 μM, 4 hours, control = healthy subjects without MG132. Type of experiment: cell-based, human. As to the method: The mouse brain sample, cells, and established lymphocytes were subjected to ultrasonic fragmentation at 4° C. using a sonicator in a lysis buffer [20 mM Tris-HCl, 150 mM NaCl, 50 mM NaF, 1 mM EDTA, 1 mM EGTA, 1% (w/v) TRITONX-100, 1 mM sodium orthovanadate, 0.1% (w/v) SDS, 1% (w/v) sodium deoxycholate, 0.5 mM dithiothreitol, 10 mM sodium pyrophosphate decahydrate, 1 mM phenylmethylsulfonyl fluoride, 10 μg/mL aprotinin, 10 μg/mL leupeptin, and 10 μg/mL pepstatin (pH 7.4)], and thus a homogenate was obtained through these operations. The homogenate was centrifuged for 20 minutes at 4° C. and 13000×g, and the supernatant thus obtained was used. A sample buffer [0.125 M Tris-HCl (pH 6.8), 2% (w/v) SDS, 5% (w/v) glycerol, 0.002% (w/v) bromophenol blue, and 5% (w/v) 2-mercaptoethanol] was added to each of the supernatant samples whose protein content had been adjusted, and then boiled at 95° C. for 5 minutes. Thereafter, the protein (20 μg) was subjected to electrophoresis using a 10% polyacrylamide gel, the protein was transferred to a polyvinylidene difluoride (PVDF) membrane (Millipore Corporation, Billerica, Mass., USA), and blocked using Detector Block Kit (Kirkegaard and Perry Laboratories, Gaithersburg, Md., USA). A primary antibody (anti-SERT) (Millipore, Billerica, Mass.) against the serotonin transporter protein was added to the PVDF membrane, allowed to stand overnight in a refrigerator (4° C.), and then a secondary antibody (HRP-conjugated anti-rabbit IgG) (Kirkegaard and Perry Laboratories) was added, and allowed to stand at room temperature for 3 hours. The luminescence due to the immune complex was detected using ECL (GE Healthcare Biosciences, Piscataway, N.J., USA), which is a Western blotting detection reagent, and the expression amount was calculated by the image analysis of the luminescence intensity.
Subsequently, in order to determine the expression amount of the β-actin protein as the endogenous reference material, stripping was carried out, a primary antibody (anti-β-actin) (Santa Cruz Biotechnology, Santa Cruz, Calif.) was added, and incubated. In the result thus obtained, the band of the serotonin transporter protein was corrected by the band of the β actin protein, and the expression amount to the control group was expressed in terms of the percentage (%).
Each of the blood samples aseptically collected from the above objects was diluted two folds with a sterile normal saline solution. Subsequently, the diluted blood sample was quietly poured into the tube containing 3.5 ml of the Ficoll-Paque liquid (General Electric Company, Uppsala, Sweden), and centrifuged at 600×g for 30 minutes. […]

For experiment [3], the system named is wild type C57BL/6J mouse. The experiment in a line: Forced swimming test, control mouse. It counts as in vivo. The protocol:
(§1) Experimental equipment and procedure: the experimental equipment was a water tank (diameter 15 cm×height 20 cm) containing water (water temperature about 22° C.×depth 13 cm). The wild type C57BL/6J mouse as the control or the model mouse was placed in the water tank, and immediately after that, the immobility time was measured using Scanet MV-10AQ (Brainscience Idea, Co., Ltd. Osaka, Japan) for 10 minutes at intervals of 1 minute.
(§2) 5 or 10 mg/kg sertraline (Pfizer, Groton, CT) suspended in 0.3% carboxymethyl cellulose sodium, and 10 or 20 mg/kg imipramine (Sigma, St. Louis, Mo.) dissolved in a normal saline solution were intraperitoneally administered 30 minutes before the main test. As the control, the solvent was intraperitoneally administered.

In experiment [4] the test system is MAGE-D1 gene-deficient mouse. The experiment in a line: Forced swimming test, model mouse. It counts as in vivo. The note with it: for effect on the increase of the immobility time: forced swimming test (FIG. 1).
From the text: The targeting vector (Stratagene: pBlueScript), which allow homologous recombination between the MAGE-D1 gene (Gene bank: NM_019791.2) exon and the drug (G418)-resistant gene (GenBank: U00004.1), was electroporated into the embryonic stem (ES) cells (acquired from Research Institute of National Center for Geriatrics and Gerontology) derived from the 129Svj mouse, and the drug-resistant colony was selected. The homologous recombinant was identified from the selected resistant colony by Southern blotting. The desired homologous recombinant ES cell clone thus identified was injected into the blastocyst stage embryo of the C57BL/6J mouse, thereby making a chimera mouse. The chimera mouse was mated with the wild type C57BL/6J mouse, thereby making a hetero MAGE-D1 gene-deficient mouse of F1 generation. The wild type C57BL/6J was mated with the hetero MAGE-D1 gene-deficient mouse up to the F10 generation, and the mouse having 99.9 percent (as a result of one mating with the C57BL/6J mouse, about half the genes of the newborn mouse are derived from the C57BL/6J mouse used for mating; in other words, as a result of the n times of mating with the C57BL/6J mouse, about [1−(1/2)^n+1]×100% genes are likely derived from the C57BL/6J mouse) C57BL/6J genetic background was used. The mouse having the genetic background was used as the MAGE-D1 gene-deficient mouse (hereinafter may be referred to as model mouse) in the following test.
as §1, §2

Where [5] appears, read: established lymphocytes from patients with depression to whom the antidepressant was not effective.
Where [6] appears, read: 10 mg/kg intraperitoneally 30 minutes before test.
The mark [7] stands for this setting: 20 mg/kg intraperitoneally 30 minutes before test.
Where [8] appears, read: 5 mg/kg intraperitoneally 30 minutes before test.

Take `CC(C)C[C@@H](C=O)NC(=O)[C@H](CC(C)C)NC(=O)[C@H](CC(C)C)NC(=O)OCc1ccccc1` [MG132] (Cbz-Leu-Leu-Leu-aldehyde): the “expression amount of the ubiquitinated serotonin transporter” value worked out at 130.6% in experiment [1] (established lymphocytes from healthy subjects, control = healthy subjects without MG132); 103.4% in experiment [1] (established lymphocytes from patients with depression to whom fluvoxamine was effective); 88.5% in experiment [1] (setting [5]). Also, the figures for the “expression amount of the serotonin transporter” value in experiment [2] (established lymphocytes from healthy subjects), in experiment [2] (established lymphocytes from patients with depression to whom the antidepressant was effective) and in experiment [2] (setting [5]) were 173.8%, 141.9% and 143.6%, respectively. Besides, the “effect of addition on the expression amount of the serotonin transporter” value in experiment [2] (established lymphocytes of the patients with depression, regardless of effect of the antidepressant) is given as “did not significantly increase”.

`CN(C)CCCN1c2ccccc2CCc2ccccc21` [imipramine]: the “average of the immobility time ratio” value came out at 47.7% in experiment [3] (setting [6]), 39.0% in experiment [3] (setting [7]), 60.2% in experiment [4] (setting [6]) and 40.6% in experiment [4] (setting [7]). Further, the “effect on the increase of the immobility time” value in experiment [4] was “significantly and dose-dependently decreased”.

Take `CN[C@H]1CC[C@@H](c2ccc(Cl)c(Cl)c2)c2ccccc21` [sertraline]: the “average of the immobility time ratio” value was 37.4% in experiment [3] (setting [8]), 37.7% in experiment [3] (setting [6]), 56.3% in experiment [4] (setting [8]) and 45.7% in experiment [4] (setting [6]). In experiment [4], the “effect on the increase of the immobility time” value was “significantly and dose-dependently decreased”.

Source of the values: patent publication US9581606B2, “Method for determining depression, kit for analyzing serotonin transporter, and kit for analyzing ubiquitinated serotonin transporter in blood” (MEIJO UNIVERSITY, priority 2011, dated 2017).
